From patent publication US20250381307A1, “RETRO-AAV AND USE IN TREATING NEURODEGENERATIVE DISEASES” (priority 2023, published 2025)

Experiments:
[1] = target: T1, rM3Ds (Rattus norvegicus, UniProt P08483, A177S/A238G/A489L/DEL261-437/DEL441-478/E258S/I253V/I483M/INS256[…]/K178L/K182A/K255R/K484R/K486H/L173F/L482A/M480V/R171S/R176Q/R179M/S481M/T174R/T181R/T257A/Y148C); experiment: Rotation behavior and nigral c-Fos in mice after unilateral nigral AAV8R12-G88P7-rM3Ds-2A-EYFP and CNO; type: in vivo; settings: for contraversive rotations (FIG. 7A): AAV8R12-G88P7-rM3Ds-2A-EYFP, n=8; for rotation behavior (FIG. 7C): control vector AAV8R12-G88P7-EYFP, n=5
T1 construct: rM3Ds; 2A-EYFP (C); host or cells: AAV8R12-transduced striatal D1-MSNs of mice and cynomolgus macaques (in vivo and acute slices)
Procedure: Mice were anesthetized with sodium pentobarbital (Nembutal; 80 mg/kg, i.p.), and then placed into a stereotaxic device (KOPF). Eye cream was applied on both corneas to avoid dehydration. The skull above the targeted areas was thinned with a dental drill and carefully removed. Injections were conducted with a 10 μL syringe connected to a 33-Gauge needle (Neuros; Hamilton), using a microsyringe pump (Legato 130, KD Scientific). A total volume of 200 nL virus was injected into the SNr at a speed of 20 nL/min. The coordinates for the SNr were 3.4 mm posterior, 1.3 mm lateral, 4.8 mm ventral to the bregma.
Mice that were used in the behavioral experiments were then implanted with guide cannulas (KOPF) unilaterally aiming at the dorsomedial striatum (0.5 mm anterior, 1.5 mm lateral, 3.5 mm ventral to the bregma). The cannulas were fixed to the skull with dental cement. Stainless steel obturators were inserted into the guide cannulas and were replaced every other day to maintain the patency until infusions were made. Mice were allowed to recover from the surgery for at least 3 weeks before further studies.
Mice were individually handled for 10-20 seconds per day for at least 5 days to habituate them to the experimenter. The open field test was conducted in a test apparatus (50 cm×50 cm×50 cm) with an HD digital camera (Sony) positioned above the arena. On day one, mice were habituated to the apparatus for 10 minutes. On day 2, mice were administrated saline (0.1 mL i.p. or 200 nL intracranially [i.e.] through the guide cannulas). On day 3, mice were administrated with Clozapine-N-oxide (CNO, Hello Bio, HB1807; 0.3 mg/kg i.p. or 200 nL at 100 μM i.e.). All behavioral tests were conducted 30 minutes after injection. During the test, mice were allowed to freely explore the apparatus for 10 minutes. The behavioral data were analyzed with ANY-maze software (Stoelting Co.).

[2] = target: T2, rM3Ds (Rattus norvegicus, UniProt P08483, A177S/A238G/A489L/DEL261-437/DEL441-478/E258S/I253V/I483M/INS256[…]/K178L/K182A/K255R/K484R/K486H/L173F/L482A/M480V/R171S/R176Q/R179M/S481M/T174R/T181R/T257A/Y148C); experiment: 6-OHDA parkinsonian mouse model: open field and rotarod; type: in vivo, C57/BL6 mice; design: rM3Ds; 2A-EYFP (C); host or cells: AAV8R12-transduced striatal D1-MSNs of mice and cynomolgus macaques (in vivo and acute slices); settings: AAV8R12-G88P7-rM3Ds-2A-EYFP, 6-OHDA mice
T2 sequence (P08483 with tags, fused parts or gaps Y148C/R171S/L173F/T174R/R176Q/A177S/K178L/R179M/T181R/K182A/A238G/I253V/K255R/INS256[…]/T257A/E258S/DEL261-437/DEL441-478/M480V/S481M/L482A/I483M/K484R/K486H/A489L): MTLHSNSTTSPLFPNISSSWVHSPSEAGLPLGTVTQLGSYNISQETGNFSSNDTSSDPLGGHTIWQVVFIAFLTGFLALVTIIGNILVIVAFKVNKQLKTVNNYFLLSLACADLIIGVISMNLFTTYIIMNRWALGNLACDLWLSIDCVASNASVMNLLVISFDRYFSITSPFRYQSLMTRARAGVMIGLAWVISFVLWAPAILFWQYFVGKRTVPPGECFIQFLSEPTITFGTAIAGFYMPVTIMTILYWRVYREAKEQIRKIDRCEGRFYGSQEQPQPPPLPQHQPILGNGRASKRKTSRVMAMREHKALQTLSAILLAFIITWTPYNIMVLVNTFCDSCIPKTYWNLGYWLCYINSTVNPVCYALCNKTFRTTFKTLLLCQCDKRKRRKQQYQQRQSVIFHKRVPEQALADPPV
Procedure: Rodent Parkinson's disease mice models were created through bilateral injection of 6-OHDA using the same methods as described in virus injections (Example 3). A total volume of 1 ul 6-OHDA (5 mg/ml, dissolved in sterile saline containing 0.02% ascorbic acid, Sigma) was injected into the striatum at a speed of 100 nL/min. The coordinates for striatum were 0.5 mm anterior, 1.5 mm lateral, 3.2 mm ventral to the bregma. A premedication of desipramine (25 mg/kg, Sigma) was administered to animals prior to injections of 6-OHDA, in order to increase the selectivity and efficacy of 6-OHDA-induced lesions. Mice were supplemented with DietGel (ClearH2O) for one-week post-surgery. All staining and behavioral experiments were performed at least 14 days following surgery, when the amount of dopamine depletion was maximal and stable.
Mice were individually handled for 10-20 seconds per day for at least 5 days to habituate them to the experimenter. The open field test was conducted in a test apparatus (50 cm×50 cm×50 cm) with an HD digital camera (Sony) positioned above the arena. On day one, mice were habituated to the apparatus for 10 minutes. […] The behavioral data were analyzed with ANY-maze software (Stoelting Co.).
Mice were individually handled as described in the open field test. […] Latency to fall for each trial was automatically recorded by the apparatus. […]

In the case of C[N+]1([O-])CCN(C2=Nc3cc(Cl)ccc3Nc3ccccc32)CC1 [CNO, clozapine N-oxide], the “rotations 12 months after viral infection” value ([1]; CNO i.p., 12 months after nigral AAV8R12-G88P7-rM3Ds-2A-EYFP) is reported as “consistently elevated contraversive rotations”, the “contraversive rotations (FIG. 7A)” value ([1]; CNO i.p., saline 45.95±4.972) is reported as 80.05±5.168 and the “rotation behavior (FIG. 7C)” value ([1]; CNO i.p., saline 48.68±7.203) is reported as 46.88±7.497. For the same molecule, the “contraversive rotations (FIG. 7A)” value ([1]; CNO intracranial, saline 58.31±4.742) was 80.77±4.187, the “rotation behavior (FIG. 7C)” value ([1]; CNO intracranial, saline 41.11±12.73) was 34.55±7.536 and the “c-Fos+ cells in the SNr” value ([1]; CNO intraperitoneal, rM3Ds) was “didn't increase the number of c-Fos+ cells in the SNr”. The “motor skill in rotarod test” value ([2]; CNO) was “partially rescued the motor skill deficit” and the “spontaneous movement in an open field” value ([2]; systemic CNO) was “drastically reversed the dyskinesia-like phenotype of PD mice”.
